Source: the supplement of paper PMC10307832

Assays:
Experiment in all cases: relative viability (nuclei count vs DMSO), 5 days (fraction); higher = more cells survive
FG-4592 + Alpelisib = compound: Cc1nc(C(=O)NCC(=O)O)c(O)c2ccc(Oc3ccccc3)cc12 [FG-4592] + Cc1nc(NC(=O)N2CCC[C@H]2C(N)=O)sc1-c1ccnc(C(C)(C)C(F)(F)F)c1 [Alpelisib] (partner 2 µM)
Procedure, shortened: (§1)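 The day after seeding in 1536-well plates, lung cancer cell lines were treated by pin tool with a single drug, or with a fixed anchor-drug dose together with five library-drug doses (not always all listed) in √10 steps. After 5 days, a combined fix-and-stain solution (final 0.05% Triton X-100, 1% formaldehyde, 1 ug/ml Hoechst) was added. Nuclei counted on 4× images gave relative viability as treated counts over vehicle counts, reported as the median of duplicate plates.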

FG-4592 + Tozasertib = compound: Cc1nc(C(=O)NCC(=O)O)c(O)c2ccc(Oc3ccccc3)cc12 [FG-4592] + Cc1cc(Nc2cc(N3CCN(C)CC3)nc(Sc3ccc(NC(=O)C4CC4)cc3)n2)n[nH]1 [Tozasertib] (partner 0.1 µM)
Procedure, shortened: as §1

IU1-47 + Lapatinib = compound: CC1=CC(=C(N1C2=CC=C(C=C2)Cl)C)C(=O)CN3CCCCC3 [IU1-47] + CS(=O)(=O)CCNCc1ccc(-c2ccc3ncnc(Nc4ccc(OCc5cccc(F)c5)c(Cl)c4)c3c2)o1 [Lapatinib] (partner 2 µM)
Procedure, shortened: as §1

FG-4592 + Olaparib = compound: Cc1nc(C(=O)NCC(=O)O)c(O)c2ccc(Oc3ccccc3)cc12 [FG-4592] + O=C(c1cc(Cc2n[nH]c(=O)c3ccccc23)ccc1F)N1CCN(C(=O)C2CC2)CC1 [Olaparib] (partner 8 µM)
Procedure, shortened: as §1

Row | Cell Line | relative viability (FG-4592 + Alpelisib; first compound 0.08 µM) | relative viability (FG-4592 + Alpelisib; first compound 0.253 µM) | relative viability (FG-4592 + Alpelisib; first compound 0.8 µM) | relative viability (FG-4592 + Alpelisib; first compound 2.53 µM) | relative viability (FG-4592 + Alpelisib; first compound 8 µM) | relative viability (FG-4592 + Tozasertib; first compound 0.08 µM) | relative viability (FG-4592 + Tozasertib; first compound 0.253 µM) | relative viability (FG-4592 + Tozasertib; first compound 0.8 µM) | relative viability (FG-4592 + Tozasertib; first compound 2.53 µM) | relative viability (FG-4592 + Tozasertib; first compound 8 µM) | relative viability (IU1-47 + Lapatinib; first compound 0.08 µM) | relative viability (IU1-47 + Lapatinib; first compound 0.253 µM) | relative viability (IU1-47 + Lapatinib; first compound 0.8 µM) | relative viability (IU1-47 + Lapatinib; first compound 2.53 µM) | relative viability (IU1-47 + Lapatinib; first compound 8 µM) | relative viability (FG-4592 + Olaparib; first compound 0.08 µM) | relative viability (FG-4592 + Olaparib; first compound 0.253 µM) | relative viability (FG-4592 + Olaparib; first compound 0.8 µM) | relative viability (FG-4592 + Olaparib; first compound 2.53 µM) | relative viability (FG-4592 + Olaparib; first compound 8 µM)
1 | LXF-289 | 0.974 | 0.963 | 1.06 | 1.05 | 1.09 | 0.186 | 0.16 | 0.214 | 0.177 | 0.205 | 0.935 | 0.921 | 0.877 | 0.911 | 0.819 | 1.09 | 0.961 | 1.07 | 1.01 | 1.1
2 | NCI-H23 | 0.663 | 0.678 | 0.772 | 0.679 | 0.673 | 0.412 | 0.4 | 0.418 | 0.346 | 0.431 | 1.04 | 1.05 | 1.26 | 0.995 | 1.25 | 0.34 | 0.333 | 0.365 | 0.321 | 0.296
3 | NCI-H322M | 0.194 | 0.797 | 0.595 | 0.941 | 0.852 | 0.469 | 0.46 | 0.442 | 0.518 | 0.396 | 0.574 | 0.622 | 0.507 | 0.633 | 0.561 | – | 0.746 | 0.713 | 0.766 | 0.897
4 | NCI-H358 | 0.864 | 0.686 | 0.952 | 0.865 | 0.717 | 0.106 | 0.111 | 0.115 | 0.113 | 0.091 | 0.445 | 0.381 | 0.481 | – | 0.456 | 0.55 | 0.552 | 0.662 | 0.579 | 0.695
5 | NCI-H460 | 0.549 | 0.46 | 0.571 | 0.517 | 0.444 | 0.381 | 0.419 | 0.42 | 0.592 | 0.487 | 1.2 | 1.14 | 0.997 | 0.655 | 0.7 | 0.445 | 0.449 | 0.462 | 0.51 | 0.43
6 | NCI-H520 | 0.908 | 0.972 | 0.952 | 0.93 | 0.74 | – | 0.479 | – | 0.479 | 0.391 | 0.774 | 0.858 | 1 | 0.879 | 0.59 | 0.361 | 0.342 | 0.303 | 0.391 | 0.385
7 | NCI-H596 | 0.418 | 0.482 | – | 0.499 | 0.527 | 0.975 | 0.916 | 0.867 | 0.893 | 0.682 | 1.04 | 1.11 | 1.02 | 1.2 | 0.989 | 0.663 | 0.641 | – | 0.708 | 0.625
8 | NCI-H647 | 1.24 | 1.07 | 1.17 | 1.24 | 0.796 | 0.365 | 0.302 | 0.311 | 0.264 | 0.166 | 1.02 | 1.22 | 1.37 | 1.22 | 0.49 | 0.597 | 0.533 | 0.489 | 0.635 | 0.416
9 | NCI-H650 | 1.03 | 1.01 | 1.04 | 0.939 | 0.881 | 0.73 | 0.703 | 0.746 | 0.691 | 0.697 | 0.854 | 0.934 | 0.656 | 1.03 | 0.74 | 0.343 | 0.32 | 0.44 | 0.364 | 0.354
10 | NCI-H661 | 0.386 | 0.581 | 0.626 | 0.835 | 0.727 | 0.365 | 0.371 | 0.347 | 0.359 | 0.343 | 0.562 | 0.546 | 0.51 | 0.338 | 0.552 | 0.708 | 0.727 | 0.822 | 0.757 | 0.816
11 | NCI-H727 | 0.533 | 0.582 | 0.545 | 0.56 | 0.561 | 0.608 | 0.591 | 0.757 | 0.807 | 0.678 | 0.762 | – | 1.11 | 0.642 | 0.833 | 0.698 | 0.782 | 0.752 | 0.681 | 0.672
12 | NCI-H838 | 0.877 | 0.933 | 0.98 | 1.01 | 0.816 | 0.296 | 0.246 | 0.279 | 0.242 | 0.26 | 0.922 | 0.889 | 1.23 | 1.01 | 0.888 | 0.796 | 0.71 | 0.796 | 0.756 | 0.806
13 | NCI-H1355 | 0.797 | 0.788 | – | 0.869 | 0.743 | 0.525 | 0.551 | 0.55 | 0.573 | 0.521 | 1.11 | 1.11 | 1.08 | 0.627 | 0.983 | 0.803 | 0.66 | – | 0.759 | 0.719
14 | NCI-H1395 | 0.973 | 0.914 | – | 0.896 | 0.693 | 0.775 | 0.728 | 0.702 | 0.75 | 0.791 | 0.968 | 0.96 | 1.08 | – | 0.892 | 0.526 | 0.488 | 0.471 | 0.48 | 0.385
15 | NCI-H1437 | 0.997 | 0.958 | 1.01 | 1.05 | 0.706 | 0.397 | 0.384 | 0.458 | 0.375 | 0.33 | 0.726 | 0.716 | 0.801 | 0.76 | 0.744 | 0.581 | 0.602 | 0.679 | 0.651 | 0.6
16 | NCI-H1651 | 0.925 | 0.888 | 1.03 | 0.95 | 0.816 | 0.773 | 0.653 | 0.742 | 0.629 | 0.569 | 0.735 | 0.743 | 0.913 | – | 0.943 | 0.182 | 0.175 | 0.196 | 0.17 | 0.176
